According to US10143668B2, “Hydroxy-substituted amino and ammonium derivatives and their medical use” (GRI BIO, INC., priority 2011, dated 2018):
Where “and” joins values, the source holds several entries; their conditions need not be identical. Equal entries are not always repeated. Where two headings read alike, the source gives them in different places. Marks after values point to notes of the source that are not given here.

Key:
[1] = tested on: allergic contact dermatitis response in mice; experiment: Allergic contact dermatitis (TDI) model in mice, mouse ear swelling test; format: in vivo
Method: The anti-inflammatory and anti-allergic effects of compound 1a were assessed in a mouse model of allergic contact dermatitis, a response driven primarily by T helper type 2 (Th2) cells. […] In this model, an allergic dermatitis response is obtained by sensitizing mice to TDI and subsequently challenging them with antigen by topical administration onto the ears. A quantitative assessment of anti-inflammatory and anti-allergic effects of topically or orally administered test compounds is possible by measuring the resulting ear swelling.
Female BALB/c-mice were obtained from Charles River (Sulzfeld, Germany) at age 8 weeks. All animals were housed in groups of eight per cage at 22° C. with a 12 h light/dark-cycle. Water and a standard diet (Altromin, Lage/Lippe, Germany) were available ad libitum. All animals were acclimatized for one week before experimental procedures were commenced.
Experimental procedures for BALB/c mice housing, TDI sensitization and challenge, and measurement of ear thickness were performed as previously described (Baumer et al., J Pharm Pharmacol. 55:1107-1114 (2003)) with the following modifications. For active sensitization, 100 μL of 5% (w/v) TDI was administered to the shaved and stripped abdominal epidermis on day one, and for the next three consecutive days, 50 μL of 5% (w/v) TDI was applied. The allergic reaction was boosted 21 days later by application of 50 μL of 0.5% (w/v) TDI. For the examination of test compound effects, the left ears were used for the TDI challenge (20 μL of 0.5% in acetone) and ear thickness measured 3 h before and 24 h after challenge.
Administration time: to determine optimal time for administration treatment groups were treated orally by gavage with 100 mg/kg of compound 1a (suspended in 0.5% tylose, 10 mL/kg) 1, 4 or 16 h before topical TDI challenge. One group was treated with 100 mg/kg miltefosine orally, 16 h before challenge (based on available data for optimal administration time for miltefosine) and vehicle treated mice received tylose (10 mL/kg) orally, 4 h before challenge.
Comparison with dexamethasone: one group of mice was treated orally with compound 1a at 100 mg/kg suspended in 0.5% tylose, 4 h before topical TDI challenge. Vehicle treated mice received 0.5% tylose orally 4 h before challenge. As a positive control, dexamethasone was administered in saline solution at 1 mg/kg or 3 mg/kg, 2 h and 30 min before challenge and 1 h after challenge. The dose and dosing scheme for dexamethasone was based on previous experience showing a maximal effect in this model.
[…] The solution was applied, 2 h before topical TDI challenge by administration of 10 μl onto each of the inner and outer surfaces of the left ears. A vehicle group (n=5) was treated with propyleneglycol. As a positive control, diflorasone diacetate was administered at 0.01% (low dose) and 0.05% (high dose) in 20 μl acetone, 2 h before challenge. A basal control group was left untreated.
Mean and standard error of the mean (SEM) were calculated from individual ear edema values. Statistical evaluation was a one-way analysis of variance (ANOVA) (if the test for normal distribution was passed) or the Kruskal-Wallis one-way ANOVA on Ranks (if the normal distribution test failed). Both were followed by a post-hoc test (Dunnett's method or Dunn's test, respectively). A p<0.05 was considered to be significant.

[2] = tested on: collagen type II-induced arthritis (CIA) in mice
[3] = therapeutic regimen, 100 mg/kg orally twice daily for 20 days, vs vehicle

`CCCCCCCCCCCCCC[N+](C)(C)CC(=O)N(C)C[C@H](O)[C@@H](O)[C@H](O)[C@H](O)CO` [Compound 1a, N-(2-(Dimethyl(tetradecyl)ammonio)acetyl)-N-methyl-D-glucamine chloride] was tested. Which toxicity ([1]; 100 mg/kg oral) did it give?
Its toxicity is “no toxicity”.

What about the “inhibition relative to the highest dose of dexamethasone” value ([1]; 100 mg/kg oral vs dexamethasone 3 mg/kg) of the same compound?
Its value is 37%.

And the “Inhibition of mouse ear swelling” value ([1]; administration time study, 100 mg/kg oral, 1 h before TDI challenge)?
Its value is 43.5* %.

What about the “Inhibition of mouse ear swelling” value ([1]; administration time study, 100 mg/kg oral, 4 h before TDI challenge) of the same compound?
Its value is 63% and 62.9*** %.

And the “Inhibition of mouse ear swelling” value ([1]; administration time study, 100 mg/kg oral, 16 h before TDI challenge)?
The value was 43.5^§ %.

And the “Inhibition of mouse ear swelling” value ([1]; comparison with dexamethasone, 100 mg/kg oral, 4 h before challenge)?
The value was 32%.

And the “Inhibition of mouse ear swelling” value ([1]; topical, 2% solution in propyleneglycol, 2 h before challenge)?
The value was 68% and 67.7*** %.

And the “Inhibition of mouse ear swelling” value ([1]; topical, 6% solution in propyleneglycol, 2 h before challenge)?
Its value is 83% and 82.2*** %.

And the cumulative arthritis score ([2]; prophylactic regimen)?
Its cumulative arthritis score is “significantly reduced”.

And the “duration of the disease” value ([2]; prophylactic regimen)?
Its value is “significantly reduced”.

What about the arthritic score ([2]; prophylactic, 25 mg/kg orally twice daily, from day 34 to day 47, vs vehicle) of the same compound?
Its arthritic score is “significantly reduced”.

And the paw thickness ([2]; prophylactic, 25 mg/kg, from day 34 after immunization, vs vehicle)?
Its paw thickness is “significant reduction”.

And the arthritic score ([2]; prophylactic, 100 mg/kg orally twice daily, from day 40 to day 47, vs vehicle)?
The arthritic score was “significantly reduced”.

What about the arthritis score [2, 3] of the same compound?
The arthritis score was “reduced the arthritis score and cumulative arthritis score compared to vehicle treated mice (FIG. 5C), but without reaching statistical significance”.

What about the cumulative arthritis score [2, 3] of the same compound?
Its cumulative arthritis score is “reduced the arthritis score and cumulative arthritis score compared to vehicle treated mice (FIG. 5C), but without reaching statistical significance”.

What about the duration of disease ([2]; therapeutic regimen, 100 mg/kg, vs vehicle) of the same compound?
The duration of disease was “trend to a reduction”.
